These are literature values, as cited in patent publication US20130195797A1, “HIGH POTENCY FORMULATIONS OF VX-950” (VERTEX PHARMACEUTICALS INCORPORATED, priority 2012, published 2013).

The data set relates to HCV. The conditions noted are these: clinical trials.

As to `CCC[C@H](NC(=O)[C@@H]1[C@H]2CCC[C@H]2CN1C(=O)[C@@H](NC(=O)[C@@H](NC(=O)c1cnccn1)C1CCCCC1)C(C)(C)C)C(=O)C(=O)NC1CC1` [VX-950], the “antiviral activity / effective therapy against HCV” value is listed as “has shown antiviral activity”.
